Assay results: BindingDB's records for doi:10.1074/jbc.M113.476234 (The Scripps Research Institute, 2013)
pIC50: −log10 of the molar value.

How the values were obtained:
[1] = target: T1, Kappa-type opioid receptor (Homo sapiens, UniProt P41145); experiment: [35S]GTPγS Coupling Assay
[2] = target: T1, Kappa-type opioid receptor; experiment: β-Arrestin2 Assay

T1 sequence (P41145 whole entry): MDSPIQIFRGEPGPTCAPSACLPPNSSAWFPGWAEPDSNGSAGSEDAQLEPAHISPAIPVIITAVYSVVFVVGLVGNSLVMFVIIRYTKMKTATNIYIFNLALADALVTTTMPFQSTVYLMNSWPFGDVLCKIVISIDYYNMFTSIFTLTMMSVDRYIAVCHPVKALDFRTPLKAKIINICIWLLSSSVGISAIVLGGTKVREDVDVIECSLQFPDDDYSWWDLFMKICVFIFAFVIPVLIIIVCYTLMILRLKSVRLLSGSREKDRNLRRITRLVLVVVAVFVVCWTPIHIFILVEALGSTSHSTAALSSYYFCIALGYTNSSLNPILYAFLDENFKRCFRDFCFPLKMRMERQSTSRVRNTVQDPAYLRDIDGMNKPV

Question: What does the source list for NC(N)=Nc1ccc2[nH]c3c(c2c1)C[C@@]1(O)[C@@H]2Cc4ccc(O)c5c4[C@@]1(CCN2CC1CC1)[C@H]3O5 [5'-Guanidinonaltrindole (5'-GNTI)]?
Answer: pIC50 [1]: 10.15; pIC50 [2]: 9.10
